The source made the active and inactive calls. No cut-off for these calls is given here.
Columns and labels:
RAW264.7 [1] = assay: Inhibition of LPS-induced NO production in mouse RAW264.7 cells at 1 uM pre-incubated for 1 hrs followed by LPS stimulation and measured after 24 hrs; assay type: functional, cell-based; settings: time 25.0 hrs
RAW264.7 [2] = assay: Inhibition of LPS-induced NO production in mouse RAW264.7 cells at 10 uM pre-incubated for 1 hrs followed by LPS stimulation and measured after 24 hrs; assay type: functional, cell-based; settings: time 25.0 hrs
RAW264.7 [3] = assay: Antiinflammatory activity in mouse RAW264.7 cells assessed as inhibition of LPS-induced NO production at 2.5 to 10 uM pre-incubated for 1 hrs followed by LPS stimulation and measured after 24 hrs; assay type: functional, cell-based; settings: dose 2.5-10 µM, time 25.0 hrs, DDE = dose-dependent effect
RAW264.7 [4] = assay: Antiinflammatory activity in mouse RAW264.7 cells assessed as reduction in LPS-induced IL-1beta mRNA expression at 2.5 to 10 uM pre-incubated for 1 hrs followed by LPS stimulation and measured after 24 hrs by qRT-PCR assay; assay type: functional, cell-based; settings: dose 2.5-10 µM, time 25.0 hrs, DDE = dose-dependent effect
RAW264.7 [5] = assay: Antiinflammatory activity in mouse RAW264.7 cells assessed as reduction in LPS-induced TNF-alpha mRNA expression at 2.5 to 10 uM pre-incubated for 1 hrs followed by LPS stimulation and measured after 24 hrs by qRT-PCR assay; assay type: functional, cell-based; settings: dose 2.5-10 µM, time 25.0 hrs, DDE = dose-dependent effect
RAW264.7 [6] = assay: Antiinflammatory activity in mouse RAW264.7 cells assessed as reduction in LPS-induced iNOS protein expression at 2.5 to 10 uM pre-incubated for 1 hrs followed by LPS stimulation and measured after 24 hrs by western blotting method; assay type: functional, cell-based; settings: dose 2.5-10 µM, time 25.0 hrs
RAW264.7 [7] = assay: Antiinflammatory activity in mouse RAW264.7 cells assessed as reduction in LPS-induced COX-2 protein expression at 2.5 to 10 uM pre-incubated for 1 hrs followed by LPS stimulation and measured after 24 hrs by western blotting method; assay type: functional, cell-based; settings: dose 2.5-10 µM, time 25.0 hrs
RAW264.7 [8] = assay: Antiinflammatory activity in mouse RAW264.7 cells assessed as reduction in LPS-induced NF-kappaB phosphorylation at 2.5 to 10 uM pre-incubated for 1 hrs followed by LPS stimulation and measured after 24 hrs by immunofluorescence staining assay; assay type: functional, cell-based; settings: dose 2.5-10 µM, time 25.0 hrs
RAW264.7 [9] = assay: Antiinflammatory activity in mouse RAW264.7 cells assessed as reduction in LPS-induced p38 phosphorylation at 2.5 to 10 uM pre-incubated for 1 hrs followed by LPS stimulation and measured after 24 hrs by western blotting method; assay type: functional, cell-based; settings: dose 2.5-10 µM, time 25.0 hrs, DDE = dose-dependent effect
RAW264.7 [10] = assay: Antiinflammatory activity in mouse RAW264.7 cells assessed as reduction in LPS-induced ERK phosphorylation at 2.5 to 10 uM pre-incubated for 1 hrs followed by LPS stimulation and measured after 24 hrs by western blotting method; assay type: functional, cell-based; settings: dose 2.5-10 µM, time 25.0 hrs, DDE = dose-dependent effect
RAW264.7 [11] = assay: Antiinflammatory activity in mouse RAW264.7 cells assessed as reduction in LPS-induced JNK phosphorylation at 2.5 to 10 uM pre-incubated for 1 hrs followed by LPS stimulation and measured after 24 hrs by western blotting method; assay type: functional, cell-based; settings: dose 2.5-10 µM, time 25.0 hrs, DDE = dose-dependent effect
[12] = Toxicity in LPS-induced sepsis in C57BL/6J mouse model assessed as decrease in ratio of kidney weight to body weight at 7 mg/kg,IG administrated for 72 hrs followed by LPS stimulation and measured after 12 hrs; assay type: organism-based; settings: in vivo, po, 84 h
[13] = Toxicity in LPS-induced sepsis in C57BL/6J mouse model assessed as decrease in ratio of kidney weight to body weight at 14 mg/kg,IG administrated for 72 hrs followed by LPS stimulation and measured after 12 hrs; assay type: organism-based; settings: in vivo, po, 84 h
[14] = Toxicity in LPS-induced sepsis in C57BL/6J mouse model assessed as decrease in ratio of spleen weight to body weight at 7 mg/kg,IG administrated for 72 hrs followed by LPS stimulation and measured after 12 hrs; assay type: organism-based; settings: in vivo, po, 84 h
[15] = Toxicity in LPS-induced sepsis in C57BL/6J mouse model assessed as decrease in ratio of spleen weight to body weight at 14 mg/kg,IG administrated for 72 hrs followed by LPS stimulation and measured after 12 hrs; assay type: organism-based; settings: in vivo, po, 84 h
[16] = Toxicity in LPS-induced sepsis in C57BL/6J mouse model assessed as decrease in ratio of heart weight to body weight at 7 mg/kg,IG administrated for 72 hrs followed by LPS stimulation and measured after 12 hrs; assay type: organism-based; settings: in vivo, po, 84 h
[17] = Toxicity in LPS-induced sepsis in C57BL/6J mouse model assessed as decrease in ratio of heart weight to body weight at 14 mg/kg,IG administrated for 72 hrs followed by LPS stimulation and measured after 12 hrs; assay type: organism-based; settings: in vivo, po, 84 h
Mus musculus [18] = assay: Antiinflammatory activity in LPS-induced sepsis in C57BL/6J mouse model assessed as reduction in inflammatory cell infiltration in liver at 7 mg/kg,IG administrated for 72 hrs followed by LPS stimulation and measured after 12 hrs by H and E staining method; assay type: functional, organism-based; settings: time 84.0 hrs
Mus musculus [19] = assay: Antiinflammatory activity in LPS-induced sepsis in C57BL/6J mouse model assessed as reduction in inflammatory cell infiltration in liver at 14 mg/kg,IG administrated for 72 hrs followed by LPS stimulation and measured after 12 hrs by H and E staining method; assay type: functional, organism-based; settings: time 84.0 hrs
Mus musculus [20] = assay: Antiinflammatory activity in LPS-induced sepsis in C57BL/6J mouse model assessed as reduction in morphological changes in kidney at 7 mg/kg,IG administrated for 72 hrs followed by LPS stimulation and measured after 12 hrs by H and E staining method; assay type: functional, organism-based; settings: time 84.0 hrs
Mus musculus [21] = assay: Antiinflammatory activity in LPS-induced sepsis in C57BL/6J mouse model assessed as reduction in morphological changes in kidney at 14 mg/kg,IG administrated for 72 hrs followed by LPS stimulation and measured after 12 hrs by H and E staining method; assay type: functional, organism-based; settings: time 84.0 hrs
Mus musculus [22] = assay: Antiinflammatory activity in LPS-induced sepsis in C57BL/6J mouse model assessed as reduction in morphological changes in heart at 7 mg/kg,IG administrated for 72 hrs followed by LPS stimulation and measured after 12 hrs by H and E staining method; assay type: functional, organism-based; settings: time 84.0 hrs
Mus musculus [23] = assay: Antiinflammatory activity in LPS-induced sepsis in C57BL/6J mouse model assessed as reduction in morphological changes in heart at 14 mg/kg,IG administrated for 72 hrs followed by LPS stimulation and measured after 12 hrs by H and E staining method; assay type: functional, organism-based; settings: time 84.0 hrs
Mus musculus [24] = assay: Antiinflammatory activity in LPS-induced sepsis in C57BL/6J mouse model assessed as reduction in morphological changes in spleen at 7 mg/kg,IG administrated for 72 hrs followed by LPS stimulation and measured after 12 hrs by H and E staining method; assay type: functional, organism-based; settings: time 84.0 hrs
Mus musculus [25] = assay: Antiinflammatory activity in LPS-induced sepsis in C57BL/6J mouse model assessed as reduction in morphological changes in spleen at 14 mg/kg,IG administrated for 72 hrs followed by LPS stimulation and measured after 12 hrs by H and E staining method; assay type: functional, organism-based; settings: time 84.0 hrs
Mus musculus [26] = assay: Antiinflammatory activity in LPS-induced sepsis in C57BL/6J mouse model assessed as reduction in serum AST level at 7 mg/kg,IG administrated for 72 hrs followed by LPS stimulation and measured after 12 hrs; assay type: functional, organism-based; settings: time 84.0 hrs
Mus musculus [27] = assay: Antiinflammatory activity in LPS-induced sepsis in C57BL/6J mouse model assessed as reduction in serum AST level at 14 mg/kg,IG administrated for 72 hrs followed by LPS stimulation and measured after 12 hrs; assay type: functional, organism-based; settings: time 84.0 hrs
Mus musculus [28] = assay: Antiinflammatory activity in LPS-induced sepsis in C57BL/6J mouse model assessed as reduction in serum Urea nitrogen level at 7 mg/kg,IG administrated for 72 hrs followed by LPS stimulation and measured after 12 hrs; assay type: functional, organism-based; settings: time 84.0 hrs
Mus musculus [29] = assay: Antiinflammatory activity in LPS-induced sepsis in C57BL/6J mouse model assessed as reduction in serum Urea nitrogen level at 14 mg/kg,IG administrated for 72 hrs followed by LPS stimulation and measured after 12 hrs; assay type: functional, organism-based; settings: time 84.0 hrs
Mus musculus [30] = assay: Antiinflammatory activity in LPS-induced sepsis in C57BL/6J mouse model assessed as reduction in serum creatinine level at 7 mg/kg,IG administrated for 72 hrs followed by LPS stimulation and measured after 12 hrs; assay type: functional, organism-based; settings: time 84.0 hrs
Mus musculus [31] = assay: Antiinflammatory activity in LPS-induced sepsis in C57BL/6J mouse model assessed as reduction in serum creatinine level at 14 mg/kg,IG administrated for 72 hrs followed by LPS stimulation and measured after 12 hrs; assay type: functional, organism-based; settings: time 84.0 hrs
Mus musculus [32] = assay: Antiinflammatory activity in LPS-induced sepsis in C57BL/6J mouse model assessed as reduction in serum LDH level at 7 mg/kg,IG administrated for 72 hrs followed by LPS stimulation and measured after 12 hrs; assay type: functional, organism-based; settings: time 84.0 hrs
Mus musculus [33] = assay: Antiinflammatory activity in LPS-induced sepsis in C57BL/6J mouse model assessed as reduction in serum LDH level at 14 mg/kg,IG administrated for 72 hrs followed by LPS stimulation and measured after 12 hrs; assay type: functional, organism-based; settings: time 84.0 hrs
Mus musculus [34] = assay: Antiinflammatory activity in LPS-induced sepsis in C57BL/6J mouse model assessed as reduction in serum HBDH level at 7 mg/kg,IG administrated for 72 hrs followed by LPS stimulation and measured after 12 hrs; assay type: functional, organism-based; settings: time 84.0 hrs
Mus musculus [35] = assay: Antiinflammatory activity in LPS-induced sepsis in C57BL/6J mouse model assessed as reduction in serum HBDH level at 14 mg/kg,IG administrated for 72 hrs followed by LPS stimulation and measured after 12 hrs; assay type: functional, organism-based; settings: time 84.0 hrs

COc1ccc(C2=NN(c3nc(C)cs3)C(c3cc(OC)c(OC)c(OC)c3)C2)cc1 (centres undefined)
inhibition (RAW264.7 [1]): Active

COc1ccccc1C1=NN(c2nc(C)cs2)C(c2ccccc2C)C1 (centres undefined)
inhibition (RAW264.7 [1]): Active | inhibition (RAW264.7 [2]): Active | Activity (RAW264.7 [3]): Dde | Activity (RAW264.7 [4]): Dde | Activity (RAW264.7 [5]): Dde | Activity (RAW264.7 [6]): Active | Activity (RAW264.7 [7]): Active | Activity (RAW264.7 [8]): Active | Activity (RAW264.7 [9]): Dde | Activity (RAW264.7 [10]): Dde | Activity (RAW264.7 [11]): Dde | Activity [12]: Non-Toxic | Activity [13]: Non-Toxic | Activity [14]: Non-Toxic | Activity [15]: Non-Toxic | Activity [16]: Non-Toxic | Activity [17]: Non-Toxic | Activity (Mus musculus [18]): Active | Activity (Mus musculus [19]): Active | Activity (Mus musculus [20]): Active | Activity (Mus musculus [21]): Active | Activity (Mus musculus [22]): Active | Activity (Mus musculus [23]): Active | Activity (Mus musculus [24]): Active | Activity (Mus musculus [25]): Active | Activity (Mus musculus [26]): Active | Activity (Mus musculus [27]): Active | Activity (Mus musculus [28]): Active | Activity (Mus musculus [29]): Active | Activity (Mus musculus [30]): Active | Activity (Mus musculus [31]): Active | Activity (Mus musculus [32]): Active | Activity (Mus musculus [33]): Active | Activity (Mus musculus [34]): Active | Activity (Mus musculus [35]): Active

COc1ccccc1C1=NN(c2nc(C)cs2)C(c2cc(OC)c(OC)c(OC)c2)C1 (centres undefined)
inhibition (RAW264.7 [1]): Active

COc1ccc(C2=NN(c3nc(C)cs3)C(c3ccc(Br)cc3)C2)cc1 (centres undefined)
inhibition (RAW264.7 [1]): Active

COc1ccccc1C1=NN(c2nc(C)cs2)C(c2ccc(Br)cc2)C1 (centres undefined)
inhibition (RAW264.7 [1]): Active

Cc1ccc(C2CC(c3ccccc3Br)=NN2c2nc(C)cs2)cc1 (centres undefined)
inhibition (RAW264.7 [1]): Active

Cc1csc(N2N=C(c3ccc(F)cc3)CC2c2ccc(Br)cc2)n1 (centres undefined)
inhibition (RAW264.7 [1]): Active

COc1ccc(C2=NN(c3nc(C)cs3)C(c3ccc(C)cc3)C2)cc1 (centres undefined)
inhibition (RAW264.7 [1]): Active

Cc1csc(N2N=C(c3ccccc3Br)CC2c2ccc(Br)cc2)n1 (centres undefined)
inhibition (RAW264.7 [1]): Active

COc1ccccc1C1=NN(c2nc(C)cs2)C(c2ccc(C)cc2)C1 (centres undefined)
inhibition (RAW264.7 [1]): Active

Reference: ChEMBL document CHEMBL5214912, “Design, synthesis, and SAR study of novel 4,5-dihydropyrazole-Thiazole derivatives with anti-inflammatory activities for the treatment of sepsis” (Eur J Med Chem, 2021)
